Reference: patent EP0502110B1, “(HETERO) 4-ARYLMETHOXY PHENYL DIAZOLE DERIVATIVES, METHOD FOR PREPARING SAME, AND THEIR THERAPEUTICAL APPLICATIONS” (SYNTHELABO, priority 1989, dated 1991)
pKi: −log10 of the molar value.

Columns and labels:
MAO-B = molecular target: T1, MAO-B (Rattus norvegicus, UniProt P19643); test: In vitro MAO activity assay, rat brain mitochondrial suspension, phenethylamine (PEA) as substrate; type: biochemical; details: 20 min preincubation, reaction time 10 min
T1 construct: en utilisant comme source d'enzyme une suspension mitochondriale du cerveau de rat; from tissue; host or cells: rat brain mitochondrial suspension
T1 sequence (P19643 1-520): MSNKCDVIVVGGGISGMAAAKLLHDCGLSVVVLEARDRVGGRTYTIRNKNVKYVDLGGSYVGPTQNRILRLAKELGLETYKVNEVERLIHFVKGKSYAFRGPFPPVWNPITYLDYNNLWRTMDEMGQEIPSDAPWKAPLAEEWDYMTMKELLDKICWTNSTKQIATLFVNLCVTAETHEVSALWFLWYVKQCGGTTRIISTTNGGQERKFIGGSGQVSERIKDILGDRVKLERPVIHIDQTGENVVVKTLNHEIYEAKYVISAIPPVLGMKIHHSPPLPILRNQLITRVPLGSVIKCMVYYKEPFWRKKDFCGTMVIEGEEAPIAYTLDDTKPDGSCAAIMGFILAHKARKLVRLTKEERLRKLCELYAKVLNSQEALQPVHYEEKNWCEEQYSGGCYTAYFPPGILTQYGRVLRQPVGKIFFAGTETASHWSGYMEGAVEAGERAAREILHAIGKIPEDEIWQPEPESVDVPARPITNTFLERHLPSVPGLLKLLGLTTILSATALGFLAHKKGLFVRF
Protocol: (§1) L'activité inhibitrice de la monoamine oxydase de ces composés a été mise en évidence par des mesures in vitro de la MAO.
(§2) Le dosage de l'activité de la MAO a été effectué en utilisant comme source d'enzyme une suspension mitochondriale du cerveau de rat. Le dosage standard consiste à préincuber l'enzyme pendant 20 minutes en absence, puis en présence des inhibiteurs. Les activités sont déterminées en utilisant la sérotonine (5 HT) et la phénéthylamine (PEA) comme substrats de la MAO-A et de la MAO-B, les temps de réaction étant de 40 minutes avec la 5 HT et de 10 minutes avec la PEA. Le mode opératoire mis en oeuvre est celui du protocole de P.C. Baker : Dev. Biol. 14, 267, 1966.
(§3) Les activités d'un certain nombre de composés selon l'invention vis-à-vis de la MAO-B et de la MAO-A sont données par leurs constantes d'inhibition Ki (MAO-B) et Ki(MAO-A) et sont rassemblées dans le tableau ci-après. TABLEAU

MAO-A = molecular target: T2, MAO-A (Rattus norvegicus, UniProt P21396); test: In vitro MAO activity assay, rat brain mitochondrial suspension, serotonin (5 HT) as substrate; type: biochemical; details: 20 min preincubation, substrate 5 HT, reaction time 40 min
T2 construct: en utilisant comme source d'enzyme une suspension mitochondriale du cerveau de rat; from tissue; host or cells: rat brain mitochondrial suspension
T2 sequence (P21396 1-526): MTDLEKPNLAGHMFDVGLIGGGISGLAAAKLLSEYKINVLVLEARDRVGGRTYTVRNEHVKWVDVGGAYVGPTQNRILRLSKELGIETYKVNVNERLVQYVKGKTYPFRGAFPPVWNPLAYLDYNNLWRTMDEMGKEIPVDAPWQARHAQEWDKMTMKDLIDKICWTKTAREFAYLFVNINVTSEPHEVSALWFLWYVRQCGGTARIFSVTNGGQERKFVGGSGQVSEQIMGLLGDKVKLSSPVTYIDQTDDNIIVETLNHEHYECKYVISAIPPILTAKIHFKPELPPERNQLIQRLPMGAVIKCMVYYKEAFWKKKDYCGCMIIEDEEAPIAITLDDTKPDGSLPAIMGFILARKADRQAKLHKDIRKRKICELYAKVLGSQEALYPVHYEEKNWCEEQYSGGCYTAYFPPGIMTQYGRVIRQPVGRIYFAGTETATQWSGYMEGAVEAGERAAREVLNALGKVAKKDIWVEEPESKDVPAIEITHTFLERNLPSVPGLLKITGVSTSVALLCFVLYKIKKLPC
Protocol: as §1, §2, §3

Row | Structure (SMILES) | pKi (MAO-B) | Ki(MAO-A) (MAO-A)
1 | COCCn1nnc(-c2ccc(OCc3ccc(Cl)cc3)cc2)n1 [MD 230305, [(chloro-4 benzyloxy)-4 phényl]-5 méthoxyéthyl-2 2H-tétrazole] | 6.74 | –
2 | COCCn1nc(-c2ccc(OCc3ccc(Cl)cc3)cc2)oc1=O [MD 230306, [(chloro-4 benzyloxy)-4 phényl]-5 méthoxyéthyl-3 3H oxadiazole-1,3,4 one-2] | 8.30 | –
3 | COCCn1nnc(-c2ccc(OCc3cccc(Cl)c3)cc2)n1 [MD 230324, [(chloro-3 benzyloxy)-4 phényl]-5 méthoxyéthyl-2 2H tétrazole] | 7.46 | –
4 | COCCn1nnc(-c2ccc(OCc3ccccc3)cc2)n1 [MD 230300, (benzyloxy-4 phényl)-5 méthoxyéthyl-2 2H tétrazole] | 7.81 | inactif
